Here are results for seven molecules from ChEMBL document CHEMBL3045946, “Synthesis and biological activity studies of new hybrid molecules containing tryptamine moiety” (2012).

The test system of test [1] is Bacillus cereus. Put plainly: Antibacterial activity against Bacillus cereus 702 Roma at 10 mg after 18 hr by agar well diffusion method. To be noted: read-out: IZ. The format is functional. (In general: Agar diffusion results depend on both activity and mobility in agar.)
Test [2] concerns Enterococcus faecalis. Put plainly: Antibacterial activity against Enterococcus faecalis ATCC 29212 at 10 mg after 18 hr by agar well diffusion method. The format is functional. To be noted: ATCC 29212, 18 h, read-out: IZ.
The test system of test [3] is Staphylococcus aureus. Nature of the test: Antibacterial activity against Staphylococcus aureus ATCC 25923 at 10 mg after 18 hr by agar well diffusion method. As to conditions: ATCC 25923, 18 h, read-out: IZ. The format is functional.
Test [4] deals with Pseudomonas aeruginosa. Nature of the test: Antibacterial activity against Pseudomonas aeruginosa ATCC 43288 at 10 mg after 18 hr by agar well diffusion method. In kind it is functional. To be noted: ATCC 43288, 18 h, read-out: IZ.
For test [5], the system named is Staphylococcus aureus. Nature of the test: Antibacterial activity against Staphylococcus aureus ATCC 25923 after 18 hr by agar well diffusion method. The format is functional.
Test [6] relates to Candida tropicalis. Nature of the test: Antifungal activity against Candida tropicalis after 18 hr by agar well diffusion method. The format is functional, organism-based.
In test [7] the test system is Candida albicans. Nature of the test: Antifungal activity against Candida albicans ATCC 60193 after 18 hr by agar well diffusion method. The format is functional, organism-based.
The subject of test [8] is Saccharomyces cerevisiae. Nature of the test: Antifungal activity against Saccharomyces cerevisiae RSKK 251 after 18 hr by agar well diffusion method. In kind it is functional, organism-based.
Test [9] deals with Bacillus cereus. Put plainly: Antibacterial activity against Bacillus cereus 702 Roma after 18 hr by agar well diffusion method. In kind it is functional.
Test [10] concerns Enterococcus faecalis. Put plainly: Antibacterial activity against Enterococcus faecalis ATCC 29212 after 18 hr by agar well diffusion method. In kind it is functional.
In test [11] the test system is Mycolicibacterium smegmatis. Put plainly: Antibacterial activity against Mycobacterium smegmatis ATCC 607 after 18 hr by agar well diffusion method. The format is functional.
The test system of test [12] is Pseudomonas aeruginosa. Nature of the test: Antibacterial activity against Pseudomonas aeruginosa ATCC 43288 after 18 hr by agar well diffusion method. In kind it is functional.

Activity calls are given as the source filed them. The calls are words filed in the database; no cut-off is given here.

In the case of `CC1(C)S[C@@H]2[C@H](NC(=O)[C@H](N)c3ccccc3)C(=O)N2[C@H]1C(=O)O` [AMPICILLIN], the zone of inhibition at 10000 µg/disc in test [1] was determined as 15 mm; in [2] it was 10 mm; in [3], 35 mm; in [4], 18 mm.

In the case of `Cc1ccc(Cc2nn(CC(=O)N/N=C/c3ccccn3)c(=O)n2CCc2c[nH]c3ccccc23)cc1`, the result in test [5], in [6], in test [7], in test [8], in test [9] and in test [10] was inactive. Moreover, the outcome in test [11] and in test [12] was inactive.

For the molecule `Cc1ccc(Cc2nn(CC(=O)N/N=c3\scc(-c4ccc(Cl)cc4)n3-c3ccccc3)c(=O)n2CCc2c[nH]c3ccccc23)cc1`, the result in [5], in test [6], in test [7], in test [8], in test [9] and in [10] was inactive. Further, the result in [11] and in test [12] was inactive.

`O=C(Cn1nc(Cc2ccc(Cl)cc2)n(CCc2c[nH]c3ccccc23)c1=O)N/N=C/c1ccc[nH]1`: the result in test [5], in test [6], in test [7], in test [8], in [9] and in test [10] was inactive. Further, the result in test [12] was inactive. In addition, the “inhibition zone (IZ)” value in [11] worked out at 6 mm.

As to `Cc1ccc(Cc2nn(Cc3nnc(S)o3)c(=O)n2CCc2c[nH]c3ccccc23)cc1`, the “inhibition zone (IZ)” value in test [5] is on record as 12 mm; in test [9], 8 mm; in test [10], 12 mm; in test [11], 8 mm. Moreover, the result in [6], in [7], in test [8] and in test [12] was inactive.

Consider `O=C(Cn1nc(Cc2ccc(Cl)cc2)n(CCc2c[nH]c3ccccc23)c1=O)N/N=c1\occ(-c2ccc(Cl)cc2)n1Cc1ccccc1`, for which the “inhibition zone (IZ)” value in test [5] is 5 mm; in test [9], 6 mm. Further, the result in test [6], in test [7], in test [8], in test [10], in test [11] and in test [12] was inactive.

Turning to `Cc1ccc(Cc2nn(CC(=O)N/N=C/c3ccc[nH]3)c(=O)n2CCc2c[nH]c3ccccc23)cc1`, the outcome in test [5], in test [6], in test [7], in test [8], in test [9] and in test [10] was inactive. Also, the outcome in test [11] and in test [12] was inactive.
